In US4710498A, “Pyridyloxy derivatives” (Ikeda Mohando Co., Ltd., priority 1984, dated 1987):
Read-outs that look alike come from different tables or passages of the source.

How the values were obtained:
[1] = system: Gastric Acid Secretion Induced by Histamine; assay: Inhibition effect on gastric acid secretion induced by histamine in pylorus ligated rat (subcutaneous); format: in vivo, male Wistar rat; details: Rattus norvegicus; 0.2 mg/kg SC; histamine 3 mg/kg SC; average of five runs; read-out: Secretion of Gastric Acid in Rat, Inhibition Rate (%)
Protocol: (§1) A male Wistar rat having a body weight of about 160 g and which had not fed for 24 hours was anesthetized by an intraperitoneal dose of 1.2 g/kg of urethane. After ligating of pylorus and esophagus, the gaster anterior was incised and fitting with a double polyethylene cannula. The wall of the stomach was rinsed with 5 ml of saline at 30 minutes intervals, and the quantity of gastric acid contained in each rinsing solution was measured by titration.
The basal acid secretion was initially measured three times, and then 0.2 mg/kg of each of the compounds of this invention was administered subcutaneously and 3 mg/kg of histamine was administered subcutaneously after the lapse of an additional 30 minutes.
(§2) The quantity of gastric acid secreted after the operation was measured continuously for 3 hours. Within that measurement interval, three time points at which the increase in acid secretion reached a maximum level were selected, and the average quantity of gastric acid secreted at those time points was taken as the increase in acid secretion, which was compared with the increase in acid secretion of the control group to calculate the percent inhibition for secretion of gastric acid (Table 1). [formula] (The result was shown as the average value of five runs.)

[2] = Acute toxicity test on mice dosed orally; format: in vivo; details: mouse, in vivo, po
Protocol: (§3) Male ddy mice each having a body weight of about 22 g and which had not eaten for 8 hours were orally dosed with the test samples, and the general symptoms and fatalities were observed from the time immediately following the administration to 14 days after the administration.
(§4) The median lethal dose (LD50) was calculated in accordance with the Litchfield and Wilcoxon Method.

Histamine H2 -Receptor = target: T1, Histamine H2 -Receptor (Cavia porcellus, UniProt P47747); assay: biochemical; set-up: species or system male Hartley guinea pig; details: negative logarithm of molar concentration; isolated guinea pig atrium; read-out: Antagonistic Action against Histamine H2 -Receptor (pA2) Determined by Using Atrium isolated from Guinea Pig (converted)
T1 construct: from tissue; host or cells: isolated right atrium of male Hartley guinea pig
T1 sequence (P47747 whole entry): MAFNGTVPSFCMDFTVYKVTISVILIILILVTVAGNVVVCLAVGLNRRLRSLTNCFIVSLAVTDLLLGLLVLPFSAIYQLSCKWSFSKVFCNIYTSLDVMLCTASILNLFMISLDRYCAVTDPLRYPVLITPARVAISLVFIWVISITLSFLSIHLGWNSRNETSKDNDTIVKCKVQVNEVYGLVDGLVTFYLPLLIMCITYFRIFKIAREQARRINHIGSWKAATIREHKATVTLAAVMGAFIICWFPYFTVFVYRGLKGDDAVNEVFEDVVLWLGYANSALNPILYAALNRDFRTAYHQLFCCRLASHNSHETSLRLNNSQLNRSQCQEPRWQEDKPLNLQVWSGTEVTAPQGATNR
Protocol: A male Hartley guinea pig having a body weight of about 400 g was killed by cervical dislocation, and the atrium thereof was isolated and was suspended in an organ bath containing […] of a modified Ringer solution and subjected to a tension of 1 g. The number of heart beats under such condition was recorded using a polygraph.
Initially, from 1×10^-7 mol to 3×10^-4 mol of histamine was allowed to act accumulatively to depict the curve of the dosage-reaction relationship. Likewise, the curve of the dosage of histamine-reaction relationship was depicted in the presence of 5×10^-7 mol to 1×10^-6 mol of the test sample which was injected 3 minutes before. The negative logarithm (pA2) of the molar concentration of the test sample required for moving the curve obtained by single administration of histamine parallel to the right side by a two-times concentration was calculated.

[3] = system: Gastric Acid Secretion Induced by Histamine; assay: Inhibitory effect of intraduodenally administered compounds on gastric acid secretion induced by histamine in rat; format: in vivo, male Wistar rat; details: for ED50: Rattus norvegicus, intraduodenal, 30 minutes before histamine SC, first series (Table 2-1), read-out: Median effective dose (ED50) inhibiting Gastric Acid Section (95% Reliability Limit); for Efficacy Ratio relative to Cimetidine (Cimetidine = 1): rat, in vivo
Protocol: The test was conducted by an improved method based on that reported by Watanabe et al., in "Pharmacometrics", Vol. 3, No. (1), pages 7 to 14 (1969).
as §1, §2

Mice = assay: Acute toxicity test on mice dosed orally; format: in vivo; details: orally, mice
Protocol: as §3, §4

[4] = P.O., 14 days observation, Litchfield and Wilcoxon Method, read-out: Median lethal dose (LD50)

| Compound | inhibition in vivo at 0.2 mg/kg [1] [%] | LD50 at 336 h [2] [mg/kg] | Kb (Histamine H2 -Receptor) [nM] | ED50 [3] [mg/kg] | LD50 at 336 h [2, 4] [mg/kg] | Efficacy Ratio relative to Cimetidine (Cimetidine = 1) [3] | acute toxicity / LD50 (in words) (Mice) |
| --- | --- | --- | --- | --- | --- | --- | --- |
| Nc1c(NC/C=C\COc2cc(CN3CCCCC3)ccn2)c(=O)c1=O [Ex. 1, 1-amino-2-[4-<4-(1-piperidinomethyl)pyridyl-2-oxy>-cis-2-butenylamino]-1-cyclobuten-3,4-dione] | 54 | > 1500 | 339 | 0.15 | – | – | – |
| CNc1c(NC/C=C\COc2cc(CN3CCCCC3)ccn2)c(=O)c1=O [Ex. 2, 1-methylamino-2-[4-<4-(1-piperidinomethyl)pyridyl-2-oxy>-cis-2-butenylamino]-1-cyclobuten-3,4-dione] | 60 | – | 174 | 0.27 | > 1500 | 25.9 | – |
| Nc1n[s+]([O-])nc1NC/C=C/COc1cc(CN2CCCCC2)ccn1 (stereo not drawn) [Ex. 9, 3-amino-4-[4-<4-(1-piperidinomethyl)pyridyl-2-oxy>-trans-2-butenylamino]-1,2,5-thiadiazole-1-oxide] | 62 | – | 339 | 0.46 | > 1500 | 15.2 | – |
| CN(C)Cc1ccnc(OC/C=C\CNc2n[s+]([O-])nc2N)c1 (stereo not drawn) [Ex. 11, 3-amino-4-<4-(4-dimethylaminomethylpyridyl-2-oxy)-cis-2-butenylamino>-1,2,5-thiadiazole-1-oxide] | 101 | – | 490 | – | > 1500 | – | – |
| CNc1n[s+]([O-])nc1NC/C=C\COc1cc(CN(C)C)ccn1 (stereo not drawn) [Ex. 12, 3-methylamino-4-<4-(4-dimethylaminomethylpyridyl-2-oxy)-cis-2-butenylamino>-1,2,5-thiadiazole-1-oxide] | 91 | – | 263 | – | > 1500 | – | – |
| Cn1nc(N)nc1NC/C=C\COc1cc(CN2CCCCC2)ccn1 [Ex. 19, 3-amino-1-methyl-5-[4-<4-(1-piperidinomethyl)pyridyl-2-oxy>-cis-2-butenylamino]-1H-1,2,4-triazole] | 3 | – | 759 | – | > 1500 | – | – |
| O=c1nc(NC/C=C\COc2cc(CN3CCCCC3)ccn2)[nH]cc1Cc1cccnc1 [Ex. 22, 2-[4-<4-(1-piperidinomethyl)pyridyl-2-oxy>-cis-2-butenylamino]-5-(3-pyridylmethyl)-1H-pyrimidin-4-one] | 40 | – | 363 | – | 1600 | – | lower LD50 values than that of Cimetidine |
| Nc1n[nH]c(=O)nc1NC/C=C\COc1cc(CN2CCCCC2)ccn1 [Ex. 27, 6-amino-5-[4-<4-(1-piperidinomethyl)pyridyl-2-oxy>-cis-2-butenylamino]-1,2,4-triazin-3-one] | 88 | – | 275 | – | > 1500 | – | – |
| Cn1nc(N)c(NC/C=C\COc2cc(CN3CCCCC3)ccn2)nc1=O [Ex. 29, 6-amino-2-methyl-5-[4-<4-(1-piperidinomethyl)pyridyl-2-oxy>-cis-2-butenylamino]-1,2,4-triazin-3-one] | 74 | – | 708 | – | 1250 | – | lower LD50 values than that of Cimetidine |
